Values of other authors as cited in patent US9795715B2, “Bone tissue engineering by ex vivo stem cells ongrowth into three-dimensional trabecular metal” (Zimmer Trabecular Metal Technology, Inc., priority 2004, dated 2017).

System: porcine embryos
Settings: 0.5 mg/mL

Substance: hyaluronan
- development of porcine embryos in culture: increase the development of porcine embryos
